Measured values published in US20090233999A1, “COMPOSITIONS AND THERAPEUTIC METHODS INVOLVING ISOFLAVONES AND ANALOGUES THEREOF” (NOVOGEN RESEARCH PTY LTD, priority 1999, published 2009).

Assays:
[1] = system: BALB/c mice (AA-induced ear swelling); conditions: regardless of route of administration; cited from earlier work
[2] = system: COX (PGE2 and TXB2 synthesis); assay: LPS-induced prostanoid (PGE2, TXB2) synthesis in human monocytes; assay type: cell-based; conditions: LPS 200 ng/mL, 18 hrs, data at 10 μM
Description: Human peripheral blood monocytes were isolated from buffy coats by lymphoprep gradient separation followed by counter-current centrifugal elutriation. Test compounds were dissolved in DMSO and added to fresh monocytes to achieve concentrations of 0, 10 and 100 μM. After 30 min, lipopolysaccharide (LPS) was added to achieve a final concentration of 200 ng/mL. After incubation for 18 hrs at 37° C. in 5% CO2, supernatants were removed and PGE2 and TXB2 (the stable hydrolysis product of TXA2) production were measured by radioimmunoassay (RIA). ANOVA followed by Newman-Keuls multiple comparisons test was used to examine differences between doses and the control values.

rat aortic ring = assay: Rat aortic ring assay, contractile response to noradrenaline; conditions: 1 μg/ml
Description: The vasodilatory capacity was examined ex vivo using the rat aortic ring assay.
Male Sprague-Dawley rats (250±50 g) were euthanased with 80% CO2 and 20% O2. The thoracic aorta was excised and quickly mounted in organ-baths as described. Full concentration-contractile curves were obtained to noradrenaline (0.1 nM-[…]) with and without test compounds delivered at a concentration of 1 μg/ml. Experiments were repeated in n=5 different rings from 5 different animals. Only one compound at any one concentration was tested on any one ring from any one animal. Sigmoidal dose response curves were fitted for the data and the logEC50 and the Ema, calculated (Prism 4, GraphPad Software). The difference in these values between the presence and absence of test compound was calculated using a two-tailed paired t test. The effects of β-oestrodiol and vehicle alone were examined as a positive and negative control respectively.

[3] = DPPH free radical scavenging
Description: The antioxidant (free radical trapping) activity of test compounds was assessed using the stable free radical compound 2,2-diphenyl-1-picrylhydrazyl (DPPH). A stock solution of DPPH was prepared at a concentration of 0.1 mM in ethanol and mixed for 10 minutes prior to use. Test compounds at a concentration of 100 μM were reacted with DPPH for 20 minutes, after which time the absorbance at 517 nm was determined and the change in absorbance compared to a reagent blank (DPPH with ethanol alone). A dose response curve was produced for those compounds with free radical scavenging activity (ΔAbs>0.3) at 100 μM. The IC50 value was estimated as the concentration of test compound that caused a 0.6 change in absorbance (with 1.2 absorbance units representing total scavenging of the DPPH radical).

ER beta receptor = molecular target: T1, ER beta receptor (Homo sapiens, UniProt Q92731); assay: Estrogen Receptor Beta Competitor Assay Core HTS Kit (Panvera); conditions: competitive binding; kind of quantity not given; read-out: binding affinity, ER beta receptor
T1 construct: purchased Panvera Corporation P2614/2615
T1 sequence (Q92731 whole entry): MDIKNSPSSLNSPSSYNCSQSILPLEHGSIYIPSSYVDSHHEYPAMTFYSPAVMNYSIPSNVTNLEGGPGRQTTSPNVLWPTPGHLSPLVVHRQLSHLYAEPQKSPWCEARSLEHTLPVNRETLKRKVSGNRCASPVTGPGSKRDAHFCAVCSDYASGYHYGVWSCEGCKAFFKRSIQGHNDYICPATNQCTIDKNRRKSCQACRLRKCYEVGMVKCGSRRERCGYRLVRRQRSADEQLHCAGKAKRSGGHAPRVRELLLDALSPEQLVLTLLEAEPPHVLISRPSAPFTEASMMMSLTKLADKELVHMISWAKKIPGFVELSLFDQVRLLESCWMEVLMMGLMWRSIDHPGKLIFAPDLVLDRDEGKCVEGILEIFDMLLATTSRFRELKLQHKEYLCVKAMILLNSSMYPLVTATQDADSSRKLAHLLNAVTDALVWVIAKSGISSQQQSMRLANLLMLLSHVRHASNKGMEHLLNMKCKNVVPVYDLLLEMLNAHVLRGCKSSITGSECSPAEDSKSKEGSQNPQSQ
Description: The binding affinity of various compounds of the invention for both subtypes of the estrogen receptor was determined with the “Estrogen Receptor Alpha or Beta Competitor Assay Core HTS Kit” supplied by Panvera Corporation (Product No. P2614/2615).

## CN1C(C(=O)Nc2ccccn2)=C(O)c2ccccc2S1(=O)=O [piroxicam]
[1]
  AA-induced oedema: did not influence

## CC(=O)Oc1ccccc1C(=O)O [aspirin]
[1]
  AA-induced oedema: did not influence

## CC(=O)Oc1ccc(C2COc3cc(OC(C)=O)cc(C)c3C2=O)cc1 (stereo not shown) [Example 6, 4′,7-Diacetoxy-5-methylisoflavan-4-one]
other
  melting point: 143 to 145 °C

## Cc1c(O)ccc2c1OCC(c1ccccc1)=C2 [Cpd. 17, 7-Hydroxy-8-methylisoflav-3-ene]
[2]
  COX inhibitory activity (inhibition of PGE2 and TXA2 production): significant COX inhibitory activity

## Cc1c(O)ccc2c1OCC(c1ccc(O)cc1)=C2 [Cpd. 13, 4′,7-Dihydroxy-8-methylisoflav-3-ene]
other
  melting point: 190 to 193 °C
Rat aortic ring
  contractile response (logEC50) of the aortic ring to noradrenaline: significantly inhibited
  strength of the contractile response (Emax): reduced
[3]; DPPH
  ability to scavenge free radicals: limited activity
[3]; DPPH 0.1 mM, 20 minutes, read-out: Free radical scavenging ability EC50
  EC50: 94 µM

## CC(=O)Oc1ccc(-c2coc3cc(OC(C)=O)cc(C)c3c2=O)cc1 [Example 5, 4′,7-Diacetoxy-5-methylisoflavone]
other
  melting point: 195 to 197 °C

## O=C1c2cc(Cl)c(O)cc2OCC1c1ccc(O)cc1 (stereo not shown) [6-Chloro-4′,7-dihydroxyisoflavan-4-one]
ER beta receptor
  IC50: 32.1 µM

## CC(C)Cc1ccc(C(C)C(=O)O)cc1 (stereo not shown) [ibuprofen]
[1]
  AA-induced oedema: did not influence

## COc1ccc2c(c1)c(CC(=O)O)c(C)n2C(=O)c1ccc(Cl)cc1 [indomethacin]
[1]
  AA-induced oedema: does inhibit
